According to the NIST ThermoML archive (doi:10.1016/j.fluid.2017.10.023):

Assay: xn = mol fraction of the nth substance listed
Settings: 313.15 K; for surface tension liquid-gas: Pendant drop shape; for mass density: Liquid, Vibrating tube method

CCCCC [pentane] + C
Settings | mass density [kg/m3] | surface tension liquid-gas [mN/m]
x2 = 0.048 | 594.4 | 12
x2 = 0.101 | 581 | 10.13
x2 = 0.181 | 558.8 | 7.61
x2 = 0.263 | 533.1 | 5.37
x2 = 0.351 | 501.8 | 3.26
x2 = 0.43 | 466.3 | 1.68
x2 = 0.501 | 431.5 | 0.761
